This is an account of results in patent US8357717B2, “Spiro group-containing amide compounds having bradykinin 1 receptor (B1R) activity” (Gruenenthal GmbH, priority 2009, dated 2013).

Assay [1] deals with T1, B1R receptor of the rat (rB1R) (Rattus norvegicus, UniProt P97583).
T1 construct: expressed in transfected cells; host or cells: CHO K1 cells, stably transfected
T1 sequence (P97583 1-337): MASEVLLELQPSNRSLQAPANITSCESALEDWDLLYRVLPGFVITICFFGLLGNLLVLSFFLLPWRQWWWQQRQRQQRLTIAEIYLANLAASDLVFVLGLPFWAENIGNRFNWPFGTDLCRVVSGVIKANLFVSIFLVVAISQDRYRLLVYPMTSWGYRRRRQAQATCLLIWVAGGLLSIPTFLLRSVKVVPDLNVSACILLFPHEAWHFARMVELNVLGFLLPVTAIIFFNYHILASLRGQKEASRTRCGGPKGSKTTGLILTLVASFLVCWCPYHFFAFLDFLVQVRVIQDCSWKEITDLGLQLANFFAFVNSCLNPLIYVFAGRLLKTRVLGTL
Kind of assay: FLIPR Ca2+ functional study on bradykinin receptor 1, rB1R cells (CHO K1). It is filed as cell-based. The following applies: 10 μM test substance, CHO K1 cells with rat B1R, agonist Des-Arg9-bradykinin at EC80; for inhibition at 10 µM: read-out: B1R antagonism, rat [10 μM] % inhibition. How it is done:
(§1) The agonistic or antagonistic activity of substances can be quantified on the bradykinin receptor 1 (B1R) of the species human and rat using ectopically expressing cell lines (CHO K1 cells) and with the aid of a Ca^2+-sensitive dye (Fluo-4) using a fluorescent imaging plate reader (FLIPR). The indication in % activation is based on the Ca^2+ signal after addition of Lys-Des-Arg^9-bradykinin (0.5 nM) or Des-Arg^9-bradykinin (100 nM). Antagonists lead to suppression of the Ca^2+ influx after the addition of the agonist. % Inhibition compared with the maximum achievable inhibition is indicated.
(§2) The agonistic or antagonistic activity of substances can be determined on the bradykinin receptor 1 (B1R) of the species human and rat using the following assay. According to this assay, the Ca^2+ influx through the channel is quantified with the aid of a Ca^2+-sensitive dye (Fluo-4 type, Molecular Probes Europe BV, Leiden, Netherlands) using a Fluorescent Imaging Plate Reader (FLIPR, Molecular Devices, Sunnyvale, USA).
(§3) Chinese hamster ovary cells (CHO K1 cells) which have been stably transfected with the human B1R gene (hB1R cells) or with the B1R gene of the rat (rB1R cells) are used. For functional studies, the cells are plated out on black 96-well plates having a clear base (BD Biosciences, Heidelberg, Germany or Greiner, Frickenhausen, Germany) in a density of 20,000-35,000 cells/well. The cells are left overnight at 37° C. and with 5% CO2 in culture medium (hB1R cells: Nutrient Mixture Ham's F12, Gibco Invitrogen GmbH, Karlsruhe, Germany or DMEM, Sigma-Aldrich, Taufkirchen, Germany; rB1R cells: D-MEM/F12, Gibco Invitrogen GmbH, Karlsruhe, Germany), with 10 vol. % FBS (fetal bovine serum, Gibco Invitrogen GmbH, Karlsruhe, Germany or PAN Biotech GmbH, Aidenbach, Germany). On the following day, the cells are loaded for 60 minutes at 37° C. with 2.13 μM Fluo-4 (Molecular Probes Europe BV, Leiden, Netherlands) in HBSS buffer (Hank's buffered saline solution, Gibco Invitrogen GmbH, Karlsruhe, Germany) […] (Sigma-Aldrich, Taufkirchen, Germany) and 10 mM HEPES (Sigma-Aldrich, Taufkirchen, Germany). The plates are then washed twice with HBSS buffer, and HBSS buffer additionally containing 0.1% BSA (bovine serum albumin; Sigma-Aldrich, Taufkirchen, Germany), 5.6 mM glucose and 0.05% gelatin (Merck KGaA, Darmstadt, Germany) is added to the plates. After incubation for a further 20 minutes at room temperature, the plates are inserted into the FLIPR for Ca^2+ measurement. Alternatively, washing is carried out with buffer A (15 mM HEPES, 80 mM NaCl, 5 mM KCl, 1.2 mM CaCl2, 0.7 mM MgSO4, 2 g/l glucose, 2.5 mM probenecid) followed by loading with buffer A with added 2.5 μM Fluo-4 and 0.025% Pluronic F127 (Sigma-Aldrich, Taufkirchen, Germany). The cells are then washed twice with buffer A and incubated for 30 minutes at room temperature with buffer A additionally containing 0.05% BSA and 0.05% gelatin and are then inserted into the FLIPR for Ca^2+ measurement. The Ca^2+-dependent fluorescence is measured before and after the addition of substances (λex=488 nm, λem=540 nm). Quantification is carried out by measuring the highest fluorescence intensity (FC, fluorescence counts) over time.
(§4) The FLIPR protocol consists of two substance additions. Test substances (10 μM) are first pipetted onto the cells and the Ca^2+ influx is compared with the control (hB1R: Lys-Des-Arg^9-bradykinin >=50 nM; rB1R: Des-Arg^9-bradykinin 10 μM). This gives the activation in %, based on the Ca^2+ signal after addition of Lys-Des-Arg^9-bradykinin (>=50 nM) or Des-Arg^9-bradykinin (10 μM). After 10-20 minutes' incubation, Lys-Des-Arg^9-bradykinin (hB1R) or Des-Arg^9-bradykinin (rB1R) is applied in the concentration of the EC80, and the influx of Ca^2+ is likewise determined. Antagonists lead to suppression of the Ca^2+ influx. The % inhibition compared with the maximum achievable inhibition is calculated. […]

For assay [2], the target named is T2, human B1R receptor (hB1R) (Homo sapiens, UniProt P46663).
T2 construct: expressed in transfected cells; host or cells: CHO K1 cells, stably transfected
T2 sequence (P46663 1-353): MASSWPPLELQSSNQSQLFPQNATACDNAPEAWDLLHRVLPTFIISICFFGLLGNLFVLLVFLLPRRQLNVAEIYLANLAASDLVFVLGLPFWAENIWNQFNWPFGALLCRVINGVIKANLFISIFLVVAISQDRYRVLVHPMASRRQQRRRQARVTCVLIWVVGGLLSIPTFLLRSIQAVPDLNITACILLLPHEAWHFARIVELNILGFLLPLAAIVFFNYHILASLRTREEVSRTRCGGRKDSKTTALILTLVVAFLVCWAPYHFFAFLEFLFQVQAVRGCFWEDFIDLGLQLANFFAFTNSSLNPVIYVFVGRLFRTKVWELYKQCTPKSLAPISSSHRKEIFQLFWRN
Kind of assay: FLIPR Ca2+ functional study on bradykinin receptor 1, hB1R cells (CHO K1). The following applies: CHO K1 cells with human B1R, agonist Lys-Des-Arg9-bradykinin at EC80; for inhibition at 10 µM: CHO-K1, 10 μM test substance, read-out: B1R antagonism, human [10 μM] % inhibition. Type of assay: cell-based. How it is done:
as §1, §2, §3, §4

On to `O=C(NCc1ccccc1Cl)N1CCc2ccc(C(=O)N3CCC4(CC3)CCN(c3ccncc3)CC4)cc2C1` [Compound G-45, N-(2-Chlorobenzyl)-7-(9-(pyridin-4-yl)-3,9-diazaspiro[5.5]undecane-3-carbonyl)-3,4-dihydroisoquinoline-2(1H)-carboxamide], for which the inhibition at 10 µM in assay [1] and in assay [2] was 97% throughout.
In the case of `COc1cc(C)c(S(=O)(=O)N2CCc3ccc(CC(=O)N4CCC5(CC4)CCN(c4ccncc4)CC5)cc3C2)c(C)c1` [Compound G-39, 2-(2-(4-Methoxy-2,6-dimethylphenylsulfonyl)-1,2,3,4-tetrahydroisoquinolin-7-yl)-1-(9-(pyridin-4-yl)-3,9-diazaspiro[5.5]undecan-3-yl)ethanone], the inhibition at 10 µM was determined as 89% in assay [1] and 99% in assay [2].
The like results for `O=C(c1ccc2c(c1)CN(C(=O)c1ccc(Cl)s1)CC2)N1CCC2(CC1)CCN(c1ccncc1)CC2` [Compound G-42, (5-Chlorothiophen-2-yl)(7-(9-(pyridin-4-yl)-3,9-diazaspiro[5.5]undecane-3-carbonyl)-3,4-dihydroisoquinolin-2(1H)-yl)methanone] were, in that order, 102% and 100%.
Take `COc1cc(C)c(S(=O)(=O)N2CCCc3ccc(CC(=O)N4CCC5(CCN(c6ccncc6)CC5)C4)cc32)c(C)c1` [Compound G-11, 2-(1-(4-Methoxy-2,6-dimethylphenylsulfonyl)-1,2,3,4-tetrahydroquinolin-7-yl)-1-(8-(pyridin-4-yl)-2,8-diazaspiro[4.5]decan-2-yl)ethanone]: the inhibition at 10 µM in assay [1] and in assay [2] was 99% each time.
Turning to `Cc1ccc(S(=O)(=O)N2CCc3ccc(C(=O)N4CCC5(CC4)CCN(c4ccncc4)CC5)cc3C2)c2ccccc12` [Compound G-47, (2-(4-Methylnaphthalin-1-ylsulfonyl)-1,2,3,4-tetrahydroisoquinolin-7-yl)(9-(pyridin-4-yl)-3,9-diazaspiro[5.5]undecan-3-yl)methanone], the inhibition at 10 µM in assay [1] amounted to 80%; in assay [2], 72%.
On to `COc1cc(C)c(C(=O)N2Cc3ccc(C(=O)N4CCC5(CC4)CCN(c4ccncc4)CC5)cc3C2)c(C)c1` [Compound G-73, [2-(4-Methoxy-2,6-dimethyl-benzoyl)-2,3-dihydro-1H-isoindol-5-yl]-(9-pyridin-4-yl-3,9-diazaspiro[5.5]undecan-3-yl)-methanone], for which the inhibition at 10 µM in assay [1] is 13%; in assay [2] it was 85%.
For `Cc1cccc(Cl)c1S(=O)(=O)N1CCCc2ccc(CC(=O)N3CCC4(CC3)CCN(c3ccncc3)CC4)cc21` [Compound G-18, 2-(1-(2-Chloro-6-methylphenylsulfonyl)-1,2,3,4-tetrahydroquinolin-7-yl)-1-(9-(pyridin-4-yl)-3,9-diazaspiro[5.5]undecan-3-yl)ethanone] the same measures were 98% and 97%.
For the compound `COc1cc(C)c(S(=O)(=O)N2CCCc3ccc(C(=O)N4CCC5(CC4)CCN(c4ccncc4)CC5)cc32)c(C)c1` [G_CC-056, [1-[(4-Methoxy-2,6-dimethyl-phenyl)sulfonyl]-1,2,3,4-tetrahydro-quinolin-7-yl]-(3-pyridin-4-yl-3,9-diazaspiro[5.5]undecan-9-yl)-methanone], the “B1R antagonism, rat [10 μM] % inhibition” value in assay [1] is on record as 100%. Also, in assay [2] (10 μM test substance, 10 µM), the “B1R antagonism, human [10 μM] % inhibition” value is 98%.
`COc1cc(C)c(S(=O)(=O)N2CCCc3ccc(C(=O)N4CCC5(CC4)CCN(c4ccncc4)CC5)cc32)c(C)c1` [Compound G-24, (1-(4-Methoxy-2,6-dimethylphenylsulfonyl)-1,2,3,4-tetrahydroquinolin-7-yl)(9-(pyridin-4-yl)-3,9-diazaspiro[5.5]undecan-3-yl)methanone]: the inhibition at 10 µM came to 100% in assay [1] and 99% in assay [2].
The like results for `O=C(Cc1ccc2c(c1)N(S(=O)(=O)c1ccccc1C(F)(F)F)CCC2)N1CCC2(CC1)CCN(c1ccncc1)CC2` [Compound G-16, 1-(9-(Pyridin-4-yl)-3,9-diazaspiro[5.5]undecan-3-yl)-2-(1-(2-(trifluoromethyl)phenylsulfonyl)-1,2,3,4-tetrahydroquinolin-7-yl)ethanone] were, in that order, 100% and 98%.
For `COc1cc(C)c(S(=O)(=O)N2Cc3ccc(C(=O)N4CCC5(CC4)CCN(c4ccncc4)CC5)cc3C2)c(C)c1` [Compound G-67, [2-[(4-Methoxy-2,6-dimethyl-phenyl)sulfonyl]-2,3-dihydro-1H-isoindol-5-yl]-(9-pyridin-4-yl-3,9-diazaspiro[5.5]undecan-3-yl)-methanone] the same measures were 101% and 100%.
For `O=C(Cc1ccc2c(c1)N(S(=O)(=O)c1ccc(OC(F)(F)F)cc1Cl)CCC2)N1CCC2(CC1)CCN(c1ccncc1)CC2` [Compound G-35, 2-(1-(2-Chloro-4-(trifluoromethoxy)phenylsulfonyl)-1,2,3,4-tetrahydroquinolin-7-yl)-1-(9-(pyridin-4-yl)-3,9-diazaspiro[5.5]undecan-3-yl)ethanone] the same measures were 101% and 79%.
For `Cc1cccc(Cl)c1S(=O)(=O)N1CCc2cccc(C(=O)N3CCC4(CC3)CCN(c3ccncc3)CC4)c2C1` [Compound G-37, (2-(2-Chloro-6-methylphenylsulfonyl)-1,2,3,4-tetrahydroisoquinolin-8-yl)(9-(pyridin-4-yl)-3,9-diazaspiro[5.5]undecan-3-yl)methanone], the inhibition at 10 µM in assay [1] came out at 90%; in assay [2], 99%.
